Several values for one entry are separate records, joined by “and”; a condition that tells them apart may be missing. Identical values can stand only once. Counter-ions that a name gives are not always drawn.

As a reminder, the IC50 is the concentration that gives 50% inhibition.

One assay concerns the target T1, recombinant human secreted phospholipase A2 (Homo sapiens, UniProt P14555).
T1 sequence (P14555 21-144): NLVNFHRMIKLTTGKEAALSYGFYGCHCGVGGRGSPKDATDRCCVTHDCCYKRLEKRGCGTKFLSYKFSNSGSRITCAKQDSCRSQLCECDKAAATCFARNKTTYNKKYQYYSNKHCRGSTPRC
Kind of assay: Human secreted phospholipase A2 inhibition test (chromogenic assay, diheptanoyl thio-PC substrate). As to conditions: Inhibition of human secreted PLA2 IC50 ± mean deviation (3-5 tests), pH 7.5, 40° C., 30 minutes, 405 nm. It is filed as biochemical. As for the experimental part:
The following chromogenic assay procedure was used to identify and evaluate inhibitors of recombinant human secreted phospholipase A2. The assay described herein has been adapted for high volume screening using 96 well microtiter plates.
A measured volume of racetic dipheptanoyl thio PC supplied in chloroform at a concentration of 100 mg/ml is taken to dryness and redissolved in 10 millimolar TRITON X-100™ nonionic detergent aqueous solution. Reaction Buffer is added to the solution, then DTNB to give the Reaction Mixture.
The reaction mixture thus obtained contains 1 mM diheptanoly thio-PC substrate, 0.29 mm Triton X-100™ detergent, and 0.12 mm DTMB in a buffered aqueous solution at pH 7.5.
1. Add 0.2 ml reaction mixture to all wells;
2. Add 10 ul test compound (or solvent blank) to appropriate wells, mix 20 seconds:
3. Add 50 nanograms of sPLA2 (10 microliters) to appropriate wells;
4. incubate plate at 40° C. for 30 minutes;
All compounds were tested in triplicate. […] Each sample was titrated in triplicate and result values were averaged for plotting and calculation of IC50 values. […] Each IC50 value was determined three times.
As to `CCc1c(CC(N)=O)c2cc(OCCCP(=O)(OC)OC)ccc2n1Cc1ccccc1` [Example 61, [3-[[3-(2-Amino-2-oxoethyl)-2-ethyl-1-(phenylmethyl)-1H-indol-5-yl]oxy]propyl]phosphonic acid dimethyl ester], the IC50 was 270 nM.

Regarding `CCc1c(CC(N)=O)c2cc(OCCCP(=O)(O)OC)ccc2n1Cc1ccccc1` [Example 63, [3-[[3-(2-Amino-2-oxoethyl)-2-ethyl-1-(phenylmethyl)-1H-indol-5-yl]oxy]propyl]phosphonic acid monomethyl ester], the 50% inhibitory concentration (IC50) was 39 ± 5 nM.

In the case of `CCOP(=O)(COc1cccc2c1c(CC(N)=O)c(C)n2Cc1ccccc1)OCC` [Example 67], the half-maximal inhibitory concentration (IC50) was found to be 1680 nM.

Turning to `Cc1c(CC(N)=O)c2c(OCC(=O)O)cccc2n1Cc1cccc(Cl)c1` [Example 72, [[3-(2-Amino-2-oxoethyl)-1-[(3-chlorophenyl)methyl]-2-methyl-1H-indol-4-yl]oxy]methyl]acetic acid sodium salt], the IC50 came out at 50 ± 150 nM.

Take `NC(=O)Cc1c(C2CC2)n(Cc2ccccc2)c2ccc(OCCCP(=O)(O)O)cc12` [Example 79, [3-[[3-(2-Amino-2-oxoethyl)-2-cyclopropyl-1-(phenylmethyl)-1H-indol-5-yl]oxy]propyl]phosphonic acid]: the IC50 amounted to 46 ± 6 nM.

In the case of `NC(=O)Cc1cn(Cc2ccccc2)c2ccc(OCCCP(=O)(O)O)cc12` [Example 80, [3-[[3-(2-Amino-2-oxoethyl)-1-(phenylmethyl)-1H-indol-5-yl]oxy]propyl]phosphonic acid], the IC50 came to 200 ± 90 nM.

Consider `NC(=O)Cc1cn(Cc2ccccc2)c2ccc(OCP(=O)(O)O)cc12` [Example 81, [[3-(2-Amino-2-oxoethyl)-1-(phenylmethyl)-1H-indol-5-yl]oxy]methyl]phosphonic acid disodium salt], for which the IC50 is 3800 nM and 3600 nM.

`COP(=O)(CCCOc1ccc2c(c1)c(CC(N)=O)c(Br)n2Cc1ccccc1)OC` [Example 86, [3-[[3-(2-Amino-2-oxoethyl)-2-bromo-1-(phenylmethyl)-1H-indol-5-yl]oxy]propane]phosphonic acid dimethyl ester]: the IC50 is 420 ± 210 nM.

Turning to `COP(=O)(O)CCCOc1ccc2c(c1)c(CC(N)=O)c(Br)n2Cc1ccccc1` [Example 87], the IC50 stood at 72 ± 17 nM.

As for `NC(=O)Cc1c(Br)n(Cc2ccccc2)c2ccc(OCCCP(=O)(O)O)cc12` [Example 88], the half-maximal inhibitory concentration (IC50) was 30 ± 6 nM.

The assay is the same for the next values; noted with them: pH 7.5, 40° C., 30 minutes, 405 nm; read-out: Inhibition of human secreted PLA2 IC50 ± mean deviation (3-5 tests).
As for `CCCCCCCCn1c(C)c(CC(N)=O)c2cc(OCCCC(=O)O)ccc21` [Example 52], the IC50 was found to be 770 ± 270 nM.

For the compound `CCCCCCCCCCn1c(C)c(CC(N)=O)c2cc(OCCCC(=O)O)ccc21` [Example 53], the IC50 turned out to be 680 nM.

As for `Cc1c(CC(N)=O)c2cc(OCCCC(=O)O)ccc2n1CC1CCCCC1` [Example 54], the IC50 is 650 ± 150 nM.

As to `CCc1c(CC(N)=O)c2cc(O)ccc2n1Cc1ccccc1` [Example 56, 2-Ethyl-5-hydroxy-1-(phenylmethyl)-1H-indole-3-acetamide], the IC50 was determined as 340 ± 100 nM.

For `CCOC(=O)CCCOc1ccc2c(c1)c(CC(N)=O)c(CC)n2Cc1ccccc1` [Example 57], the IC50 was 1270 nM.

As to `CCc1c(CC(N)=O)c2cc(OCCCC(=O)NN)ccc2n1Cc1ccccc1` [Example 59], the IC50 stood at 74 nM.

As for `CCc1c(CC(N)=O)c2cc(OCCCC(N)=O)ccc2n1Cc1ccccc1` [Example 60, 5-(4-Amino-4-oxobutoxy)-2-ethyl-1-(phenylmethyl)-1H-indole-3-acetamide], the IC50 turned out to be 104 ± 17 nM.

As to `CCc1c(CC(N)=O)c2cc(OCCCP(=O)(O)O)ccc2n1Cc1cccc(Cl)c1` [Example 64, [3-[[3-(2-Amino-2-oxoethyl)-1-[(3-chlorophenyl)methyl]-2-ethyl-1H-indol-5-yl]oxy]propyl]phosphonic acid], the IC50 stood at 16 ± 1 nM.

For `Cc1c(CC(N)=O)c2c(OCC(=O)NN)cccc2n1Cc1ccccc1` [Example 65, 4-(2-Hydrazino-2-oxoethoxy)-2-methyl-1-(phenylmethyl)-1H-indole-3-acetamide], the IC50 came to 360 ± 130 nM.

`Cc1c(CC(N)=O)c2c(OCC(N)=O)cccc2n1Cc1ccccc1` [Example 66, 4-(2-Amino-2-oxoethoxy)-2-methyl-1-(phenylmethyl)-1H-indole-3-acetamide]: the half-maximal inhibitory concentration (IC50) was found to be 360 ± 70 nM.

Regarding `COc1ccc2c(c1)c(CC(N)=O)c(C)n2Cc1cccc(Cl)c1` [Example 69, 1-[(3-Chlorophenyl)methyl]-5-methoxy-2-methyl-1H-indole-3-acetamide], the 50% inhibitory concentration (IC50) turned out to be 1380 ± 520 nM.

As for `Cc1c(CC(N)=O)c2cc(O)ccc2n1Cc1cccc(Cl)c1` [Example 70, 1-[(3-Chlorophenyl)methyl]-5-hydroxy-2-methyl-1H-indole-3-acetamide], the IC50 is 5880 ± 1170 nM.

For `COC(=O)COc1cccc2c1c(CC(N)=O)c(C)n2Cc1cccc(Cl)c1` [Example 71], the IC50 is 2370 ± 790 nM.

As for `Cc1c(CC(N)=O)c2c(OCC(=O)O)cccc2n1Cc1ccccc1-c1ccccc1` [Example 73, [[3-(2-Amino-2-oxoethyl)-1-([1,1'-biphenyl]-2-ylmethyl)-2-methyl-1H-indol-4-yl]oxy]acetic acid sodium salt], the IC50 turned out to be 10 ± 1 nM.

For `CCc1c(CC(N)=O)c2c(OCC(=O)O)cccc2n1Cc1cccc(Cl)c1` [Example 75, 2-[[3-(2-Amino-2-oxoethyl)-1-[(3-chlorophenyl)methyl]-2-ethyl-1H-indol-4-yl]oxy]acetic acid], the IC50 came out at 39 ± 4 nM.

For the compound `NC(=O)Cc1cn(Cc2ccccc2)c2cccc(OCC(=O)O)c12` [Example 76, 2-[[3-(2-Amino-2-oxoethyl)-1-(phenylmethyl)-1H-indol-4-yl]oxy]acetic acid], the IC50 is 337 nM and 305 nM.

In the case of `COc1ccc2c(c1)c(CC(N)=O)c(C1CC1)n2Cc1ccccc1` [Example 77, 2-Cyclopropyl-5-methoxy-1-(phenylmethyl)-1H-indole-3-acetamide], the IC50 came to 336 ± 23 nM.

`NC(=O)Cc1c(C2CC2)n(Cc2ccccc2)c2ccc(O)cc12` [Example 78, 2-Cyclopropyl-5-hydroxy-1-(phenylmethyl)-1H-indole-3-acetamide]: the IC50 is 118 ± 11 nM.

In the case of `NC(=O)Cc1cn(Cc2ccccc2)c2ccc(O)cc12` [Example 82, 5-Hydroxy-1-(phenylmethyl)-1H-indole-3-acetamide], the IC50 worked out at 3680 ± 190 nM.

As to `NC(=O)Cc1cn(Cc2ccccc2)c2ccc(OCCCC(=O)O)cc12` [Example 83, 4-[[3-(2-Amino-2-oxoethyl)-1-(phenylmethyl)-1H-indol-5-yl]oxy]butanoic acid], the IC50 was 150 ± 40 nM.

For the compound `Cc1c(CC(N)=O)c2cc(OCCCS(=O)(=O)O)ccc2n1Cc1ccccc1` [Example 84, 3-[4-[[3-(2-Amino-2-oxoethyl)-2-methyl-1-(phenylmethyl)-1H-indol-5-yl]oxy]propane]sulfonic acid], the IC50 amounted to 195 ± 65 nM.

`COc1cc2c(CC(N)=O)c(Br)n(Cc3ccccc3)c2cc1Cl` [Example 89, 2-Bromo-6-chloro-5-methoxy-1-(phenylmethyl)-H-indole-3-acetamide]: the IC50 came to 120 ± 20 nM.

With `NC(=O)Cc1c(Br)n(Cc2ccccc2)c2cc(Cl)c(O)cc12` [Example 90, 2-Bromo-6-chloro-5-hydroxy-1-(phenylmethyl)-H-indole-3-acetamide], the IC50 came out at 90 ± 10 nM.

For the origin of these results see patent US5684034A, “1H-indole-3-acetamide sPLA2 inhibitors” (Eli Lilly and Company, priority 1995, dated 1997).
